Source: patent US5482964A, “Substituted phenoxyhydroxypropyl amines as central nervous system agents” (Warner-Lambert Company, priority 1994, dated 1996)

Assays:
[1] = target: T1, P-type calcium channels (Rattus norvegicus, UniProt P54282); experiment: Inhibition of depolarization induced Ca++ flux (CaFl), 45Ca++ influx into rat neocortical synaptosomes; assay type: biochemical; conditions: for inhibition at 10 µM / inhibition at 30 µM: read-out: CaFl, percent inhibition; for IC50: 30 mM KCl stimulated 45Ca flux, rat neocortical synaptosomes
T1 construct: Male rats (Sprague-Dawley, 200-220 g) were killed by decapitation and neocortices were isolated by blunt dissection; from tissue; host or cells: Sprague-Dawley rat neocortex, crude synaptosomes
T1 sequence (P54282 whole entry): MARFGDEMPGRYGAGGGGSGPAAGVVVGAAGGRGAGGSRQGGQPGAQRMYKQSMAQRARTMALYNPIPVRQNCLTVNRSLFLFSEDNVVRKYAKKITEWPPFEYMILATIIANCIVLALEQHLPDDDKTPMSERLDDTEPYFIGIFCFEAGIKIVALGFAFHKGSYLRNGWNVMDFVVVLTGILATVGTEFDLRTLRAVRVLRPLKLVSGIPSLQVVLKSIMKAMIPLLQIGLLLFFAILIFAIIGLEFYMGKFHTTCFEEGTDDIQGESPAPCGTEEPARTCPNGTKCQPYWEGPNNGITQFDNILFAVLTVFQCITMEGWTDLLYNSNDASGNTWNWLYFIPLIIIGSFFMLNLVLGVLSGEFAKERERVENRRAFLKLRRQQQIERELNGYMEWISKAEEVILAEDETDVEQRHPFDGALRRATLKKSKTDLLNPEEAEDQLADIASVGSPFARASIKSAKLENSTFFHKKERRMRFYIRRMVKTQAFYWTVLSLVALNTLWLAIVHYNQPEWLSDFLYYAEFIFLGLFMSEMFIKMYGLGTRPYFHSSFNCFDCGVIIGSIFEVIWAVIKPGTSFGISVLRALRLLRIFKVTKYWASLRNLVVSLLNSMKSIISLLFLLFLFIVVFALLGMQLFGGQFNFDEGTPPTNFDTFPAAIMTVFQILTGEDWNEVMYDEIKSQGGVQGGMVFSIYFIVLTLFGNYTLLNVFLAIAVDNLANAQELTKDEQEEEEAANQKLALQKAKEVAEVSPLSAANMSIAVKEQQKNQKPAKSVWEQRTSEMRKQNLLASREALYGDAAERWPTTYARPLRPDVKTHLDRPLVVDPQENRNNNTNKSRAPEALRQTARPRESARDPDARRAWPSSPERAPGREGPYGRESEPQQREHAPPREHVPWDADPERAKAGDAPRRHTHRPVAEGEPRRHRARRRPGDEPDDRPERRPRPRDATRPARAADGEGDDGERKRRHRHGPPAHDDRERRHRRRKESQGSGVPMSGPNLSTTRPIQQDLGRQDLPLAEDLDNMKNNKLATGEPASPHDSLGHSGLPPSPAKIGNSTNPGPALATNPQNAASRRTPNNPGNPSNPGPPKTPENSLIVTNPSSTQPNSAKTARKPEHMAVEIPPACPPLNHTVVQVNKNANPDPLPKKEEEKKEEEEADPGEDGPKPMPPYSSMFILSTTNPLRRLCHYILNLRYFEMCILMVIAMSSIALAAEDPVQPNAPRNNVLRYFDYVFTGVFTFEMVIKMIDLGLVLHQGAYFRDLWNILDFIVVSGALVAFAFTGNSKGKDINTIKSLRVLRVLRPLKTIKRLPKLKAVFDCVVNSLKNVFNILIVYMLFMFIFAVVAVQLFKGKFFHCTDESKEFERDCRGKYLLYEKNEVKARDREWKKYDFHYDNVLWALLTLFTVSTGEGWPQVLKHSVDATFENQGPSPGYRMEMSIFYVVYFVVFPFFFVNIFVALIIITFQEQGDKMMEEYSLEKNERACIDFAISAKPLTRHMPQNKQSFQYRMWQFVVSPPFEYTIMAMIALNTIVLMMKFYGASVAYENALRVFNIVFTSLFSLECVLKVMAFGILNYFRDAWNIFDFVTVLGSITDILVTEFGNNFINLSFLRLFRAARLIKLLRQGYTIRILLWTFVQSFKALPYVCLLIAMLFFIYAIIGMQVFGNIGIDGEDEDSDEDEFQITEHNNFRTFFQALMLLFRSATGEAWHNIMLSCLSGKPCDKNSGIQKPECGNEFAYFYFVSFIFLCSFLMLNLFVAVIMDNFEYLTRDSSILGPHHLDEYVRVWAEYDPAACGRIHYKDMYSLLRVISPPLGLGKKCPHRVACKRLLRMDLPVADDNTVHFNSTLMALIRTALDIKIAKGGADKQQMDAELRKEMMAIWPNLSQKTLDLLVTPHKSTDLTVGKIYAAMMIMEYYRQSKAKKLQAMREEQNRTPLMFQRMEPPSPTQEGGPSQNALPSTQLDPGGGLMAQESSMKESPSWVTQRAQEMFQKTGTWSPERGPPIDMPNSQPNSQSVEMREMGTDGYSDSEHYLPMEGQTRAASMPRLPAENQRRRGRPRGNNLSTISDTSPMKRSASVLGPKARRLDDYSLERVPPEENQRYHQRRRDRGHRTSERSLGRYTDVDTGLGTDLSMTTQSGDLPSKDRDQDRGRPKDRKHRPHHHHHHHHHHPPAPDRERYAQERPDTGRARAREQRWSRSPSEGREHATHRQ
Source text: A large influx of calcium from extracellular compartments into neurons is observed after opening of voltage-dependent calcium channels. The opening of calcium channels may be induced by a K^+ -stimulated depolarization of neuronal membranes. A crude synaptosomal preparation contains small vesicles surrounded by neuronal membranes, and it is feasible to study the opening of voltage-operated calcium channels in such a preparation. In the test described below, the influx of ^45 Ca^++ into rat synaptosomes is studied under depolarized conditions. The effect of the test compounds on the depolarization induced calcium update can thus be studied. The calcium influx measured in this assay is believed to represent the P-type calcium channels.
Male rats (Sprague-Dawley, 200-220 g) were killed by decapitation and neocortices were isolated by blunt dissection. White matter was dissected away and the gray matter was placed in cold sucrose buffer (composition (mM): sucrose 320, TRIS base 5.0, EDTA 0.1; adjusted to pH 7.3 with HCl). The tissue was homogenized using 5 strokes at 500 rpm followed by 4 strokes at 800 rpm. The homogenate was centrifuged at 1075 g for 10 minutes. The pellet was discarded and the supernatant was centrifuged at 15800 g for 10 minutes at 4° C., and the supernatant was discarded. The final pellet was resuspended in incubation buffer and kept on ice.
Fifty-microliter aliquots of neocortical synaptosome suspension were preincubated for 5 minutes at 25° C. in 400 μL of incubation buffer containing drug or control solvent. The synaptosomes were then exposed to a tracer quantity of ^45 CaCl2 (1 μCi/mL) in combination with either 3 mM KCl (basal calcium flux or 30 mM KCl (stimulated calcium flux). The calcium flux was terminated by filtration over glass-fiber filters (GFB) using a Skatron 12-well harvester; filters were washed with a pressurized, continuous flow of 3 mL wash buffer (composition (mM): choline chloride 140, EGTA 3, HEPES 22; adjusted to pH 7.3 with TRIS base). Radioactivity of the filters was measured by scintillation counting. Basal calcium flux was subtracted from stimulated calcium flux in both control- and drug-treated conditions, and data were expressed as percent inhibition of the adjusted control response.

[2] = target: sodium channels; conditions: rat neocortical membranes, 5 nM [3H]batrachotoxinin, Cheng-Prusoff; read-out: BTX Binding
[3] = system: male CF-1 mice; experiment: Maximal electroshock (MES) anticonvulsant screen in mice; assay type: in vivo
Description: All experiments were conducted on male CF-1 mice (Charles River Laboratory, Portage, Mich.). The mice weighed 20 to 35 g and were allowed free access to food and water prior to testing. The compounds were dissolved in various solutions of up to 50% organic solvents and 50% buffered solutions. All doses were injected intravenously (IV) in a volume of 1.0 mL per 100 g of body weight using a 25-gauge needle and a 1 cc syringe. Doses of the compounds were calculated as the free base.
Maximal electroshock was administered via corneal electrodes with an electroshock apparatus (Wahlquist Instrument Company) immediately following the inverted screen test. The stimulus consisted of a 50 mA current (100 mA peak-to-peak) and duration of 0.2 seconds. The protocol for the MES assay involved groups of five mice per dose at each time period postdose. […] The mice were sacrificed with carbon dioxide immediately after MES. Anticonvulsant data were recorded as the number of mice protected from MES out of five. Two out of five were considered active.

`COc1ccc(CCN(Cc2ccc(Cl)cc2)CC(O)COc2cccc(C)c2)cc1OC` (stereo not shown) [Example 3, 1-{(4-Chlorobenzyl)-[2-(3,4-dimethoxyphenyl)-ethyl]-amino}-3-m-tolyloxy-propan-2-ol] was tested, and the inhibition at 10 µM [1] was 44% and the inhibition at 30 µM [1] was 77%.

`COc1ccc(CCN(CCc2ccccc2)CC(O)COc2cccc(C)c2)cc1OC` (stereo not shown) [Example 22, 1-{[2-(3,4-Dimethoxyphenyl)ethyl]-phenethylamino}-3-m-tolyloxy-propan-2-ol] gave an IC50 [1] of 1.4 µM.

Molecule `COc1ccc(CCN(Cc2ccc(F)cc2)CC(O)COc2cccc(C)c2)cc1OC` (stereo not shown) [Example 1, 1-[[2-(3,4-Dimethoxyphenyl)-ethyl]-(4-fluorobenzyl)amino]-3-m-tolyloxy-propan-2-ol] has an IC50 [1] of 5.2 µM.

With `COc1ccc(CCN(Cc2ccccc2)CC(O)COc2ccc3c(c2)CCC3)cc1OC` (stereo not shown) [Example 16, 1-{Benzyl-[2-(3,4-dimethoxyphenyl)-ethyl]-amino}-3-(indan-5-yloxy)-propan-2-ol] the IC50 [1] was 4.8 µM.

In the case of `COc1ccc(CCN(C)CC(O)COc2ccc3c(c2)CCC3)cc1OC` (stereo not shown) [Example 27], the inhibition at 10 µM [1] is reported as 43% and the inhibition at 30 µM [1] is reported as 69%.

Molecule `COc1ccc(CCN(CC(O)COc2cccc(C)c2)CC2CCCCC2)cc1OC` (stereo not shown) [Example 23, 1-{Cyclohexylmethyl-[2-(3,4-dimethoxyphenyl)ethyl]-amino}-3-m-tolyloxy-propan-2-ol] has an IC50 [1] of 1.9 µM.

With `COc1ccc(CCN(C)CC(O)CSc2cccc3ccccc23)cc1OC` (stereo not shown) [Example 29, 1-{[2-(3,4-Dimethoxyphenyl)-ethyl]-methylamino}-3-(naphthalen-1-ylsulfanyl)-propan-2-ol] the IC50 [1] was 3.6 µM.

`COc1ccc(CCN(Cc2ccccc2)CC(O)COc2cccc3ccccc23)cc1OC` (stereo not shown) [Example 18, 1-{Benzyl-[2-(3,4-dimethoxyphenyl)-ethyl]-amino}-3-(naphthalen-1-yloxy)-propan-2-ol] gave an IC50 [1] of 8.1 µM.

Molecule `COc1ccc(CCN(Cc2ccccc2F)CC(O)COc2cccc(C)c2)cc1OC` (stereo not shown) [Example 13, 1-[[2-(3,4-Dimethoxyphenyl)-ethyl]-(2-fluorobenzyl)amino]-3-m-tolyloxy-propan-2-ol] has an IC50 [1] of 1.8 µM.

Work on `COc1cccc(CN(CCc2ccc(OC)c(OC)c2)CC(O)COc2cccc(C)c2)c1` (stereo not shown) [Example 10, 1-[[2-(3,4-Dimethoxyphenyl)-ethyl]-(3-methoxybenzyl)amino]-3-m-tolyloxy-propan-2-ol] yielded an IC50 [1] of 5.1 µM.

Work on `COc1ccc(CCN(Cc2ccccc2)CC(O)COc2ccc(OCc3ccccc3)cc2)cc1OC` (stereo not shown) [Example 14, 1-{Benzyl-[2-(3,4-dimethoxyphenyl)-ethyl]-amino}-3-(4-benzyloxyphenoxy)-propan-2-ol] yielded an IC50 [1] of 5 µM and a Ki [2] of 0.016 µM.

Molecule `COc1ccc(CCN(C)CC(O)COc2cccc3ccccc23)cc1OC` (stereo not shown) [Example 28, 1-{[2-(3,4-Dimethoxyphenyl)-ethyl]-methylamino}-3-(naphthalen-1-yloxy)-propan-2-ol] has an IC50 [1] of 6.8 µM.

Molecule `COc1ccc(CCN(C)CC(O)COc2ccc(OCc3ccccc3)cc2)cc1OC` (stereo not shown) [Example 26, 1-(4-Benzyloxyphenoxy)-3-{[2-(3,4-dimethoxyphenyl)ethyl]-methylamino}-propan-2-ol] has an IC50 [1] of 3.3 µM.

In the case of `COc1ccc(CCN(Cc2ccccc2[N+](=O)[O-])CC(O)COc2cccc(C)c2)cc1OC` (stereo not shown) [Example 11, 1-[[2-(3,4-Dimethoxyphenyl)-ethyl]-(2-nitrobenzyl)amino]-3-m-tolyloxy-propan-2-ol], the IC50 [1] is reported as 3.1 µM.

`COc1ccc(CCN(Cc2ccccc2)CC(O)COc2cccc(C(F)(F)F)c2)cc1OC` (stereo not shown) [Example 20, 1-{Benzyl-[2-(3,4-dimethoxyphenyl)-ethyl]-amino}-3-(3-trifluoromethylphenoxy)-propan-2-ol] showed an IC50 [1] of 4.7 µM and a Ki [2] of 0.62 µM.

`COc1ccc(CN(CCc2ccc(OC)c(OC)c2)CC(O)COc2cccc(C)c2)cc1` (stereo not shown) [Example 8, 1-[[2-(3,4-Dimethoxyphenyl)-ethyl]-(4-methoxybenzyl)amino]-3-m-tolyloxy-propan-2-ol] showed an IC50 [1] of 5.4 µM and a Ki [2] of 0.152 µM.

`COc1ccc(CCN(C)CC(O)COc2cccc(C)c2)cc1OC` (stereo not shown) [Example 25, 1-{[2-(3,4-Dimethoxyphenyl)-ethyl]-methylamino}-3-m-tolyloxy-propan-2-ol] was tested, and the inhibition at 30 µM [1] was 31%.

`COc1ccc(CCN(Cc2ccc([N+](=O)[O-])cc2)CC(O)COc2cccc(C)c2)cc1OC` (stereo not shown) [Example 5, 1-[[2-(3,4-Dimethoxyphenyl)-ethyl]-(4-nitrobenzyl)amino]-3-m-tolyloxy-propan-2-ol] showed an inhibition at 10 µM [1] of 59% and an inhibition at 30 µM [1] of 62%.

`COc1ccc(CCN(Cc2ccccc2)CC(O)COc2ccc(C3CCCCC3)cc2C)cc1OC` (stereo not shown) [Example 15, 1-{Benzyl-[2-(3,4-dimethoxyphenyl)-ethyl]-amino}-3-(4-cyclohexyl-2-methylphenoxy)-propan-2-ol] was tested, and the IC50 [1] was 9.2 µM.

For `COc1ccc(CCN(Cc2ccccc2Cl)CC(O)COc2cccc(C)c2)cc1OC` (stereo not shown) [Example 17, 1-{(2-Chlorobenzyl)-[2-(3,4-dimethoxyphenyl)ethyl]-amino}-3-m-tolyloxy-propan-2-ol], the inhibition at 10 µM [1] was 46% and the inhibition at 30 µM [1] was 55%.

With `COc1ccc(CCN(Cc2cccc([N+](=O)[O-])c2)CC(O)COc2cccc(C)c2)cc1OC` (stereo not shown) [Example 6, 1-[[2-(3,4-Dimethoxyphenyl)-ethyl]-(3-nitrobenzyl)amino]-3-m-tolyloxy-propan-2-ol] the inhibition at 10 µM [1] was 57% and the inhibition at 30 µM [1] was 62%.

`COc1ccccc1CN(CCc1ccc(OC)c(OC)c1)CC(O)COc1cccc(C)c1` (stereo not shown) [Example 12, 1-[[2-(3,4-Dimethoxyphenyl)-ethyl]-(2-methoxybenzyl)amino]-3-m-tolyloxy-propan-2-ol] showed an IC50 [1] of 4.1 µM.

`COc1ccc(CCN(Cc2ccccc2)CC(O)CSc2cccc(C(F)(F)F)c2)cc1OC` (stereo not shown) [Example 21, 1-{Benzyl-[2-(3,4-dimethoxyphenyl)-ethyl]-amino}-3-(3-trifluoromethylphenylsulfanyl)-propan-2-ol] was tested, and the IC50 [1] was 4.3 µM and the Ki [2] was 0.44 µM.

`COc1ccc(CCN(C)CC(O)COc2ccc(C3CCCCC3)cc2C)cc1OC` (stereo not shown) [Example 24, 1-(4-Cyclohexyl-2-methylphenoxy)-3-{[2-(3,4-dimethoxyphenyl)-ethyl]-methylamino}-propan-2-ol] was tested, and the IC50 [1] was 2.1 µM, the Ki [2] was 0.31 µM and the “MES, number of mice protected” value ([3]; 1 mg/kg IV, 3 min postdose) was 0/5. For the same molecule, the “MES, number of mice protected” value ([3]; 1 mg/kg IV, 30 min postdose) was 0/5, the “MES, number of mice protected” value ([3]; 3 mg/kg IV, 3 min postdose) was 0/5 and the “MES, number of mice protected” value ([3]; 3 mg/kg IV, 30 min postdose) was 1/5. The “MES, number of mice protected” value ([3]; 3 mg/kg IV, 1 hr postdose) was 1/5, the “MES, number of mice protected” value ([3]; 10 mg/kg IV, 3 min postdose) was 4/5 and the “MES, number of mice protected” value ([3]; 10 mg/kg IV, 30 min postdose) was 4/5. For the same molecule, the “Animals died in this group” value ([3]; 10 mg/kg IV, 1 hr group) was 1/5 and the “MES, number of mice protected” value ([3]; 10 mg/kg IV, 1 hr postdose) was 3/4.

`COc1ccc(CCN(Cc2cccc(Cl)c2)CC(O)COc2cccc(C)c2)cc1OC` (stereo not shown) [Example 7, 1-{(3-Chlorobenzyl)-[2-(3,4-dimethoxyphenyl)ethyl]-amino}-3-m-tolyloxy-propan-2-ol] was tested, and the inhibition at 10 µM [1] was 47%.

Molecule `COc1ccc(CCN(Cc2c[nH]c3ccccc23)CC(O)COc2cccc(C)c2)cc1OC` (stereo not shown) [Example 30, 1-[[2-(3,4-Dimethoxyphenyl)ethyl]-(1H-indol-3-ylmethyl)-amino]-3-m-tolyloxypropan-2-ol] has an IC50 [1] of 4.5 µM and a Ki [2] of 0.015 µM.

Work on `COc1ccc(CCN(Cc2ccccc2)CC(O)COc2cccc(C)c2)cc1OC` (stereo not shown) [Example 2, 1-{Benzyl-[2-(3,4-dimethoxyphenyl)-ethyl]amino}-3-m-tolyloxy-propan-2-ol] yielded an IC50 [1] of 9.2 µM and a Ki [2] of 0.52 µM.

Work on `COc1ccc(CCN(Cc2ccccc2)CC(O)CSc2cccc3ccccc23)cc1OC` (stereo not shown) [Example 19, 1-{Benzyl-[2-(3,4-dimethoxyphenyl)-ethyl]-amino}-3-(naphthalen-1-ylsulfanyl)-propan-2-ol] yielded an IC50 [1] of 2.5 µM and a Ki [2] of 0.2 µM.

`COc1ccc(CCN(Cc2cccc3ccccc23)CC(O)COc2cccc(C)c2)cc1OC` (stereo not shown) [Example 9, 1-{[2-(3,4-Dimethoxyphenyl)-ethyl]-naphthalen-1-ylmethylamino}-3-m-tolyloxy-propan-2-ol] showed an IC50 [1] of 9.9 µM.

`COc1ccc(CCN(Cc2cccc(F)c2)CC(O)COc2cccc(C)c2)cc1OC` (stereo not shown) [Example 4, 1-[[2-(3,4-Dimethoxyphenyl)-ethyl]-(3-fluorobenzyl)amino]-3-m-tolyloxy-propan-2-ol] was tested, and the IC50 [1] was 6.6 µM.
